# In patent publication US20220235006A1, “PYRIDINE DERIVATIVES AS TMEM16A MODULATORS FOR USE IN THE TREATMENT OF RESPIRATORY CONDITIONS” (TMEM16A LIMITED, priority 2019, published 2022):
# Experiments:
# [1] = target: T1, human TMEM16A (TMEM16Aabc variant) (Homo sapiens, UniProt Q5XXA6, DEL476-501); experiment: Automated whole-cell patch clamp (Qpatch) TMEM16A potentiator assay in recombinant FRT cells; assay type: cell-based; conditions: for activation at 3.33 µM: percentage increase of baseline TMEM16A current, minimum n = 2, read-out: % Potentiation @ 3.33 uM Avg; for EC50: minimum n = 2
# T1 sequence (Q5XXA6 with tags, fused parts or gaps isoform Q5XXA6-5 DEL539-564): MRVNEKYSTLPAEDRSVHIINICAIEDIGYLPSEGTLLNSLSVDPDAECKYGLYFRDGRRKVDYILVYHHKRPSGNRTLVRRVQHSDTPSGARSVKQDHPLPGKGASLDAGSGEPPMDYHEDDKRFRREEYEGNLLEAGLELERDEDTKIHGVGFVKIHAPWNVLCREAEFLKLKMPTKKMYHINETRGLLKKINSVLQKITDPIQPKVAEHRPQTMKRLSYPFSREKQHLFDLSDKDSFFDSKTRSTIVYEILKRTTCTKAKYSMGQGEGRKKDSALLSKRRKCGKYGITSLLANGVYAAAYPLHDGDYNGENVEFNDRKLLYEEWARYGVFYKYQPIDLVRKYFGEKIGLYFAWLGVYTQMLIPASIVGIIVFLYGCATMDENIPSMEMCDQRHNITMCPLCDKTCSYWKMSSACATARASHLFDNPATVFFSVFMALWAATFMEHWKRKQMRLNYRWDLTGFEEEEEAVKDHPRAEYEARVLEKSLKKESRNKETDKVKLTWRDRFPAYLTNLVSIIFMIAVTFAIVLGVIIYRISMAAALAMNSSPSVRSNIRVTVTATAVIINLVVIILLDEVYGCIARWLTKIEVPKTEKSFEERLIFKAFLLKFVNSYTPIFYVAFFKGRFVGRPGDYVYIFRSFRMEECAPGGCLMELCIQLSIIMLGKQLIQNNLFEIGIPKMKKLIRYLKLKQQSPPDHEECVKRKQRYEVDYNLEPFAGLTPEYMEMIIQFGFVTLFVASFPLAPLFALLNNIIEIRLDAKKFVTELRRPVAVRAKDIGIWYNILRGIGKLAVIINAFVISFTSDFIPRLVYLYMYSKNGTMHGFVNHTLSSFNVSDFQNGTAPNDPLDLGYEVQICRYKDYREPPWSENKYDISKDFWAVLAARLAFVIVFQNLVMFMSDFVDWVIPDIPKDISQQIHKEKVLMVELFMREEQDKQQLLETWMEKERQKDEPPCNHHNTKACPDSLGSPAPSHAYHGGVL
# Outline: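 FRT cells stably expressing human TMEM16Aabc, whole-cell automated patch clamp with intracellular Ca2+ buffered for ~20% maximal current (EC20). Held at −70 mV, step to +70 mV/ramp at 0.05 Hz, cumulative compound additions of 5 min each. Peak +70 mV current increase expressed as % potentiation of baseline.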
# [2] = Kinetic solubility determination (high throughput); assay type: physicochemical; conditions: kinetic from dmso stock, sterile water, 5% DMSO, room temperature
# Procedure: Test compounds (10 μL; 20 mM DMSO solution) were added to sterile water (190 μL) in triplicate and shaken at 300 rpm at room temperature. After 90 min. the test compounds were filtered by centrifuge (5 min. at 3000 rpm) to obtain the aqueous filtrate. Acetonitrile (20 μL) was dispensed into clean 96-well UV/VIS analysis plate and aqueous filtrate (80 μL) added and the plate analysed for test compound concentration using a Molecular Devices SPECTRAmax® plus microplate reader at the following wavelengths: (280, 300, 320, 340, 360, 800 nm). […] The diluted filtrate (80 μL) was then added to acetonitrile (20 μL) and the plate analysed. as previously.
# [3] = Log D (pH7.4 shake flask); assay type: physicochemical; conditions: pH 7.4; 1-octanol/phosphate buffer shake flask; read-out: mLogD (pH 7.4)
# Procedure: Phosphate buffer (1 M) was diluted to 20 mM with deionised water and adjusted to pH 7.4 with phosphoric acid or sodium hydroxide. 1-octanol and phosphate buffer (20 mM) were saturated overnight by tumbling. The two phases were separated using a separation funnel. 5 μL of 5 mM compound cassette was added to 495 μL of octanol-saturated buffer and 495 μL buffer saturated octanol in a 96-well plate (top concentration 50 μM). Plate was shaken for 1 h and centrifuged at 25° C. for 5 min. 200 μL of each phase was transferred to a separate plate. The octanol layer was sampled first to avoid cross contamination. 5 μL of the solutions were transferred to 495 μL of quench solution* (max concentration 0.5 μM). In addition, 40 μL of buffer solution was added to 360 μL of quench solvent (max concentration 5 μM). Samples were analysed by LC-MS/MS. Benchmarking against a calibration curve for each compound and with reference to the control compounds sulpride, diclofenac, chlorpromazine and tamoxifen. *Quench solution was a 1:3:1 mixture (v/v/v) of Acetonitrile containing 0.1% formic acid and imipramine/labetalol, 200 nM:Acetonitrile:Water.
activation at 3.33 µM [1] [%],EC50 [1] [nM],solubility kinetic at 90 min [2] [µg/mL],logD [3],Compound
513,99,12,> 4,"CC(C)c1cc(C(C)(C)C)c(O)cc1CC(=O)Nc1ccnc(C(=O)NC(C)(C)C)c1 [Example 6, N-tert-Butyl-4-[[2-(4-tert-butyl-5-hydroxy-2-isopropyl-phenyl)acetyl]amino]pyridine-2-carboxamide]"
356,150,42,> 4.2,"CC(C)(C)NC(=O)c1cc(NC(=O)Cc2cc(O)c(C(C)(C)C#N)cc2F)ccn1 [Example 2.2, N-tert-Butyl-4-[[2-[4-(1-cyano-1-methyl-ethyl)-2-fluoro-5-hydroxy-phenyl]acetyl]amino]pyridine-2-carboxamide]"

# Further lines, the compound ahead of its results:
Compound,activation at 3.33 µM [1] [%],EC50 [1] [nM],solubility kinetic at 90 min [2] [µg/mL],logD [3]
"CC(C)(C#N)NC(=O)c1cc(NC(=O)Cc2cc(O)c(C3(C)CCC3)cc2F)ccn1 [Example 5, N-(1-Cyano-1-methyl-ethyl)-4-[[2-[2-fluoro-5-hydroxy-4-(1-methylcyclobutyl)phenyl]acetyl]amino]pyridine-2-carboxamide]",335,43,17,> 4
"N#CC1(NC(=O)c2cc(NC(=O)Cc3cc(O)c(C4(C(F)(F)F)CC4)cc3F)ccn2)CC1 [Example 9, N-(1-Cyanocyclopropyl)-4-[[2-[2-fluoro-5-hydroxy-4-[1-(trifluoromethyl)cyclopropyl]phenyl]acetyl]amino]pyridine-2-carboxamide]",378,88,72,3.5
"C=C(C)c1cc(F)c(CC(=O)Nc2ccnc(C(=O)NC3(C(F)(F)F)CC3)c2)cc1O [Example 7.1, 4-[[2-(2-Fluoro-5-hydroxy-4-isopropenyl-phenyl)acetyl]amino]-N-[1-(trifluoromethyl)cyclopropyl]pyridine-2-carboxamide]",433,15,18,> 4.2
"CC(C)(CO)c1cc(F)c(CC(=O)Nc2ccnc(C(=O)N[C@H]3CCC[C@@H]3O)c2)cc1O [Example 12.2, 4-[[2-[2-Fluoro-5-hydroxy-4-(2-hydroxy-1,1-dimethyl-ethyl)phenyl]acetyl]amino]-N-[(1S,2S)-2-hydroxycyclopentyl]pyridine-2-carboxamide]",142,238,296,2.6
